Blank lines part the entries; values can stand above or below the compound they belong to. Active and inactive are the calls of the source. The calls are words filed in the database; no cut-off is given here.
What was measured:
cells [1] = details: Homo sapiens
cells [2] = details: Homo sapiens, OSC19
FaDu = experiment: cells; details: Homo sapiens
[3] = molecular target: T1, Signal transducer and activator of transcription 1-alpha/beta (Homo sapiens) (UniProt P42224); experiment: Inhibition of IFNgamma-induced STAT1 pathway in human Cal33 cells at 50 uM; type: cell-based; details: CAL-33
T1 sequence (whole entry): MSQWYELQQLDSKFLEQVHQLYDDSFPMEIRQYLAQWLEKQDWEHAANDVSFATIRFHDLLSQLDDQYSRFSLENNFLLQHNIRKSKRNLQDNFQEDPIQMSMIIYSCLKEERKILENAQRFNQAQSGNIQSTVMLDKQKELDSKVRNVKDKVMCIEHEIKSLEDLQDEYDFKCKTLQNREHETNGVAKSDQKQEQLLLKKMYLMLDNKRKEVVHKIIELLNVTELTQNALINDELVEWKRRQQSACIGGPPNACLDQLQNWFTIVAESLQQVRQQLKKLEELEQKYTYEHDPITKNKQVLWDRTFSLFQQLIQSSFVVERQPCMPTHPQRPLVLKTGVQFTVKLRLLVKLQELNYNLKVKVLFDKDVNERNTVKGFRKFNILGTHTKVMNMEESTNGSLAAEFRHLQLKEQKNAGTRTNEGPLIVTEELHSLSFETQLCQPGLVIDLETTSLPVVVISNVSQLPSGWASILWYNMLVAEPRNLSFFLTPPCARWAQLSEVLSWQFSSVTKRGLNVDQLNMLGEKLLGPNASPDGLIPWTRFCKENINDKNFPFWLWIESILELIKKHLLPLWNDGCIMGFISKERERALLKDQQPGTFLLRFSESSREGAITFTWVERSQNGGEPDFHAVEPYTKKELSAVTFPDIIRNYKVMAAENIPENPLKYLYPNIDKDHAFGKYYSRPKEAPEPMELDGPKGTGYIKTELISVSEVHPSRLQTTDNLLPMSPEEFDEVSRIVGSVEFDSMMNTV

cells [4] = details: Homo sapiens, CAL-33
[5] = molecular target: Tyrosine-protein kinase JAK1 (Homo sapiens) (UniProt P23458); experiment: Inhibition of JAK1 phosphorylation in human Cal33 cells by Western blot analysis; type: cell-based; details: CAL-33
[6] = molecular target: Tyrosine-protein kinase JAK2 (Homo sapiens) (UniProt O60674); experiment: Inhibition of JAK2 phosphorylation in human Cal33 cells by Western blot analysis; type: cell-based; details: CAL-33
[7] = Selectivity index, ratio of IC50 for IFNgamma-induced STAT1 pathway in human Cal33 cells to IC50 for IL-6-induced STAT3 pathway in human Cal33 cells; type: cell-based; details: CAL-33

Chain of Tyrosine-protein kinase JAK2 (Homo sapiens) (O60674 whole entry): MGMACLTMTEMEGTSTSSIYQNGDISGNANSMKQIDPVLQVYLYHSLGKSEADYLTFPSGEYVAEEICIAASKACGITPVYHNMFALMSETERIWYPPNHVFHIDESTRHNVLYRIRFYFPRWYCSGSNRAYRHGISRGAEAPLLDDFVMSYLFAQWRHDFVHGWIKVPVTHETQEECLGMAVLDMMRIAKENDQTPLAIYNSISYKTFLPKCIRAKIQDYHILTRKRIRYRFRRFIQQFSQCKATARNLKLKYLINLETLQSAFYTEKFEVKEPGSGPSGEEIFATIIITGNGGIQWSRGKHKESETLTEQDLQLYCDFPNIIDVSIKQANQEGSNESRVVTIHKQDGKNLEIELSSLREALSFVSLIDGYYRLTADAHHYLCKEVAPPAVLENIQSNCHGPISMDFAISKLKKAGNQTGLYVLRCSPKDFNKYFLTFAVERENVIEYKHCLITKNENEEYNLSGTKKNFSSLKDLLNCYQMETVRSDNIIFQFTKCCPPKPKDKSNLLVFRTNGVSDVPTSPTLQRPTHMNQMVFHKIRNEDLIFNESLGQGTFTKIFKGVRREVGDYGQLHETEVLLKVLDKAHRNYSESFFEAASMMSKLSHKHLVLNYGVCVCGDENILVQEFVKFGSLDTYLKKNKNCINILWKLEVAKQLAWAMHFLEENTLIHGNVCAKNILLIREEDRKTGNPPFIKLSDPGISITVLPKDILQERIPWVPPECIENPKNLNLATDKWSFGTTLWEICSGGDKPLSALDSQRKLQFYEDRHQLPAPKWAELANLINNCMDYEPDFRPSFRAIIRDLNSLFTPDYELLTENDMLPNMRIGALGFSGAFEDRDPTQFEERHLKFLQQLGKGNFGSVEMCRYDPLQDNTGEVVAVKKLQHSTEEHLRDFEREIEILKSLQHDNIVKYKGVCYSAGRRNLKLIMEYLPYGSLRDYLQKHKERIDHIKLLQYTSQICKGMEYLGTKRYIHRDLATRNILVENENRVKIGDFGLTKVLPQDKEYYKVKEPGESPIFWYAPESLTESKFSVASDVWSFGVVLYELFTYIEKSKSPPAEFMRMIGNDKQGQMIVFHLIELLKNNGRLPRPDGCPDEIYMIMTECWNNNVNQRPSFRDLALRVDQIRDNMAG
Chain of Tyrosine-protein kinase JAK1 (Homo sapiens) (P23458 whole entry): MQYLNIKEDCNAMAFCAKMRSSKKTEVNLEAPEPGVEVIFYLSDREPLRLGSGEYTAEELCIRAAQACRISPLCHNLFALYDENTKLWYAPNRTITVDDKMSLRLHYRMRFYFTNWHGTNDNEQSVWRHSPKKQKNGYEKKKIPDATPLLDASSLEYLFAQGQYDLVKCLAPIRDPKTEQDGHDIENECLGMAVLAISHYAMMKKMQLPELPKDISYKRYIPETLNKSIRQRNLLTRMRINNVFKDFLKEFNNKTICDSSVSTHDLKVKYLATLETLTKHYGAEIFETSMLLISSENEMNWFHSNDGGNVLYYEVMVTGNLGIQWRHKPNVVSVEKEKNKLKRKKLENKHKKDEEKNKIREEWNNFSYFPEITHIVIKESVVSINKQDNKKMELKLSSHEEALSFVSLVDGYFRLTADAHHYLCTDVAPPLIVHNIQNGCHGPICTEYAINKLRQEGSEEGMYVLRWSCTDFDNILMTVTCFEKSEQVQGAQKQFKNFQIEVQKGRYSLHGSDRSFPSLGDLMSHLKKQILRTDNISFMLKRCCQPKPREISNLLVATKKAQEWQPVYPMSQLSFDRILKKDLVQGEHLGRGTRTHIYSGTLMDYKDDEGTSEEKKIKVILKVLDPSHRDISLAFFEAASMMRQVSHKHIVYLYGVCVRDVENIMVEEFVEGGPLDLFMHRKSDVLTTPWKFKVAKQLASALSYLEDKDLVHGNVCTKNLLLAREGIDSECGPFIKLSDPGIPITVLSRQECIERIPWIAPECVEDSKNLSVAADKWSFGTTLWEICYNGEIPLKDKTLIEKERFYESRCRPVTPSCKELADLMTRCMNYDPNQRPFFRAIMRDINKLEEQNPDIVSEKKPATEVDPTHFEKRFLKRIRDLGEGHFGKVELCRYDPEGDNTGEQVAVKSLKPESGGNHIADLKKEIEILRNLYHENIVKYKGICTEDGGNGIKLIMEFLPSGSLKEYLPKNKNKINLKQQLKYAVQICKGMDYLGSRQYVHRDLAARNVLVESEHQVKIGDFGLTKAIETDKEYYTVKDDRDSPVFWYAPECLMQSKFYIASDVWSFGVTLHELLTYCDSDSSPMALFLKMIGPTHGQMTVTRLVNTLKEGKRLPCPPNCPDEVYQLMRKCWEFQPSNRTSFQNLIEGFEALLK

IC50 (cells [1]): 37.8 µM
IC50 (cells [2]): 19 µM
Compound: CCOc1ccc2nc(Nc3nc(=O)cc(-c4ccccc4)[nH]3)nc(C)c2c1

IC50 (cells [1]): 49.3 µM
IC50 (cells [2]): 12.8 µM
Compound: CC1=CC(C)(C)N=C(Nc2nc(C)c3cc(C)ccc3n2)N1

IC50 (FaDu): 1.9 µM
IC50 (cells [4]): 1.2 µM
IC50 (cells [1]): 2.4 µM
IC50 (cells [2]): 3.2 µM
Compound: CC1=CC(C)(C)N=C(Nc2nc(C)c3cc(C)cc(C)c3n2)N1

Further lines, the compound ahead of its results:

Compound: CCOc1ccc2nc(NC3=NC(C)=CC(C)(C)N3)nc(C)c2c1
IC50 (FaDu): 18.8 µM
inhibition [3]: inactive
IC50 (cells [4]): 29.4 µM
IC50 (cells [1]): 37.5 µM
IC50 (cells [2]): 17 µM
inhibition [5]: inactive
inhibition [6]: inactive

Compound: Cc1cc(C)c2nc(Nc3nc(C)c(C)c(O)n3)nc(C)c2c1
Ratio IC50 [7]: > 7

Compound: COc1ccc2nc(Nc3nc(=O)cc(C)[nH]3)nc(C)c2c1
Ratio IC50 [7]: > 1

Compound: Cc1cc2nc(Nc3nc(=O)c(C)c(C)[nH]3)nc(C)c2cc1C
Ratio IC50 [7]: > 4

Compound: Cc1nc(Nc2nc(=O)cc(-c3ccccc3)[nH]2)nc2cc3c(cc12)OCO3
Ratio IC50 [7]: > 3
